According to ChEMBL document CHEMBL3507680, “University of Dundee, Gates Library screen for HepG2 cell viability”:

Assay: Human HepG2 cell viability assay in 384 well format
Type: toxicity, cell-based
Set-up: dose 125 nL, time 70.5 hour; cytotoxicity at 70.5 h: concentration not given beside the values
Conditions: HepG2 cells, read-out: Inhibition

Row | SMILES | cytotoxicity at 70.5 h [%]
1 | CN(Cc1c(F)cccc1Cl)C(=O)c1cnn(CCN2CCOCC2)c1 | -12.6
2 | CN1CCN(Cc2cn3c(n2)CN(C(=O)c2cccn2C)CC3)CC1 | -4.16
3 | Cc1cc(C(=O)N2C[C@@H]3OCCN(CCN4CCCC4)[C@@H]3C2)c(C)o1 | -7.77
4 | CCOc1ccnc(NCc2nc(C)cc(C(F)(F)F)n2)n1 | -0.888
5 | COCCn1c(=O)n(C)c(=O)c2ccc(C3CCN(C(C)=O)CC3)nc21 | -1.06
6 | CC(C)c1nnc2n1CCN(C(=O)c1ccc(Cn3cccc3)cc1)C2 | -7.11
7 | COc1ccc(F)cc1-n1cnc(CCNC(C)=O)c1 | 16.3
8 | NC(=O)CN1CCCC1c1cncc(Oc2ccc(Cl)cc2)n1 (stereo not given) | -4.42
9 | COCC(=O)NC1CCCN(c2ccc(C)cc2)C1=O (stereo not given) | -0.459
10 | CCS(=O)(=O)c1ccc(N2CCC(NC(=O)NC(C)CO)CC2)cc1 (stereo not given) | -1.95
11 | Cc1occc1C(=O)N1CCC2(CC1)C(c1cnn(C)c1)CC(=O)N2C (stereo not given) | 4.52
12 | CNc1cc(N2CCCC2CNCc2ccco2)ncn1 (stereo not given) | -1.02
13 | COc1ccc(C[C@H]2CN(C(=O)c3cscn3)CC[C@@H]2OC)cc1 | 49.9
14 | CC(C)N1CCN(C(=O)c2csc3nc(-c4ccc(Cl)cc4)cn23)CC1 | -16.3
15 | CC(=O)N1CCOC(c2c(C(=O)O)sc3ccccc23)C1 (stereo not given) | -7.22
16 | Cc1cnc(N)c(C(=O)C2CCN(C(=O)c3cnc(C)cn3)CC2)c1 | -13
17 | CC(=O)Nc1nc(COc2nc(C)no2)cs1 | 24.6
18 | FC(F)(F)c1cc(C2CCCN(Cc3cccnc3)C2)n[nH]1 (stereo not given) | 9.85
19 | Cc1ccc(CN2CCn3cc(CN4CCN(C)CC4)nc3C2)cc1 | -13.5
20 | c1cnc(N2CCC(c3csc(Nc4cnccn4)n3)CC2)nc1 | 12.4
21 | COC(=O)c1cccc(CNC(=O)c2cc(C(C)C)n(C)n2)c1 | 27.4
22 | Cc1ccnc(NC(=O)CCc2cnn(C)c2C)c1 | -4.47
23 | COC(=O)c1ccc(OC)c(Cn2cc(Br)cn2)c1 | -16.7
24 | CCN(CC1CN(Cc2cccc(C#N)c2)CCO1)c1cccnn1 (stereo not given) | 0.605
25 | CN(CCc1ccc2c(c1)CCO2)C1CCS(=O)(=O)CC1 | 16.1
26 | CCc1c(C(=O)NC2CCS(=O)(=O)C2)cnn1-c1ccc(C)cc1 (stereo not given) | -6.41
27 | Cc1cc(C)n(-c2ccc(C(=O)N3CCCC3c3cnn(C)c3)cc2)n1 (stereo not given) | -5.54

Row | SMILES | cytotoxicity at 70.5 h [%]
28 | CC(C)(C)N1CC(C(=O)N2CCN(CCc3ccccc3)CC2)CC1=O (stereo not given) | -12.8
29 | O=C(NC1CCCC1)[C@@H]1CN(Cc2nccs2)C[C@H]2OCC[C@H]21 | 33.7
30 | COCC1CC2(CCN(C(=O)c3oc4ccccc4c3C)CC2)CO1 (stereo not given) | 3.46
31 | O=C(CCCOc1cccc(F)c1)N1CCCC(n2cccn2)C1 (stereo not given) | -5.07
32 | Cc1ccc(N2CC[C@H]3OCC[C@@]3(C(=O)N3CCCO3)C2)nn1 | -4.42
33 | Cc1cccc(C2CCCN(C(=O)C3CCN(CC(N)=O)CC3)C2)c1 (stereo not given) | -17.7
34 | COC[C@@]12CC[C@@H](N3CCOCC3)C[C@H]1CCN(c1ncccn1)C2 | -10.2
35 | CCn1nc(C)c(CN(C)S(=O)(=O)c2cnn(C)c2)c1C | -5.84
36 | O=C([C@H]1COC[C@H]2CN(c3ncc(F)cn3)C[C@H]21)N1CCOCC1 | -7.81
37 | CCOCC(=O)NCCC(O)c1ccoc1 (stereo not given) | -11.9
38 | C[C@@H]1CN(C(=O)CCc2nncn2C)CC[C@@]1(O)C1CCC1 | -5.47
39 | CCOCC(=O)N1CCC(C(O)c2ccc(F)cc2)CC1 (stereo not given) | 2.49
40 | COCCC(=O)N[C@H]1CC[C@H](Nc2nccc(-c3ccncc3)n2)C1 | -6.41
41 | CCN(CCOC)C(=O)CCc1scnc1C | -2.82
42 | CN1CCC(N(C)CCC(=O)N2CCC(Cc3ccc(F)cc3)CC2)C1 (stereo not given) | 24.2
43 | CCN(Cc1ccoc1)C(C(N)=O)c1ccc(C#N)cc1 (stereo not given) | -1.21
44 | COc1cc(N2C[C@H](C(=O)NCC3CC3)[C@@H]3CCO[C@@H]3C2)ncn1 | -11.6
45 | Cc1ccc(S(=O)(=O)N2CSCC2C(=O)N(C)C2CC2)cc1Cl (stereo not given) | -12.2
46 | CCN(Cc1cnn(C)c1)C[C@H]1CC[C@@H](Cc2ccc(C#N)cc2)O1 | -17.4
47 | CCc1nnc2n1CCN(C(=O)CN(C)C1CC1)C2 | -0.0438
48 | CCc1csc(C2CCCN(C(=O)c3cnn(CC)c3)C2)n1 (stereo not given) | 6.03
49 | CC(C)NC(=O)N1CCCC(c2nnc(CN3CCOCC3)n2C)C1 (stereo not given) | -10.9
50 | Cc1cc(CN2CCN(C(=O)NC(C)Cn3ccnc3)CC2)on1 (stereo not given) | 29.6
51 | CC(C)Nc1ncnc2c1CCN(C(=O)[C@H]1CCCO1)CC2 | -6.46
52 | O=C(CCn1ccnc1)N1CC[C@@H](c2ccc3ccccc3c2)[C@H](O)C1 | 4.4
53 | CNc1cc(C2CCCNC2)nc(C)n1 (stereo not given) | 16.2
54 | Cc1cc(C)n2cc(CN3CCCC3Cn3nc(C)nc3C)nc2n1 (stereo not given) | -6.16

Row | SMILES | cytotoxicity at 70.5 h [%]
55 | O=C(O)c1cc2c(nc1-c1ccncc1)CCN(Cc1ccoc1)CC2 | -7.98
56 | Cc1noc(C2CCCN(C(=O)CCCNc3ncccn3)C2)n1 (stereo not given) | 3.05
57 | COc1cc(NC(=O)c2ccc(C)cc2C)c(C(=O)N(C)C)cc1OC | 4.46
58 | Cc1ccc(N(C)C2CCN(C(=O)CCc3ccco3)CC2)nn1 | -11.8
59 | CN(CCCc1ccc(C(F)(F)F)cc1)Cc1nccn1C | -12
60 | Cc1nn(C)c2c(NCc3cccnc3)nc(C3CC3)nc12 | -3.52
61 | COc1ccnc(CNc2nc(C)nc(C)c2C)c1 | 3
62 | Cc1ccc2nc(C)c(C)c(C(=O)N3CCS(=O)(=O)CC3)c2c1 | -12.9
63 | CS(=O)(=O)CCC(=O)N1CCC(c2ccc(F)c(F)c2)CC1 | 2.26
64 | O=C(CCn1cc(Cl)cn1)N1CCC2(CC1)[C@H](O)C[C@@H]2OCCO | -1.08
65 | O=C(NCC1CCS(=O)(=O)C1)c1ccc2cccc(Cl)c2n1 (stereo not given) | -5.5
66 | CCOC(=O)CNC(=O)Cn1c(-c2ccoc2)nc(C)c1C | 3.16
67 | Cn1nc(COc2cncnc2)c2c1CCN(Cc1ccco1)C2 | 6.82
68 | CS(=O)(=O)NCc1cc2n(n1)CCCN(Cc1nc3ccccc3[nH]1)C2 | -8.44
69 | CCCn1cc(-c2cc(-c3cnc(OC)nc3)c(C#N)c(N)n2)c(C)n1 | -7.45
70 | CC1=Nc2c(c(O)nn2C(C)C)C(c2cn(C)nc2C)S1 (stereo not given) | 21
71 | CCn1ncc2c1C(COC)CN(Cc1ccc(F)cc1)C2 (stereo not given) | 2.06
72 | O=C(CCc1ccccc1Br)NCC(=O)NCc1ccccc1 | -7.06
73 | CCCc1cc(C(=O)N2CCC3(CCCNC3=O)C2)cs1 (stereo not given) | -0.581
74 | CCCn1c(C)c(CC(=O)NCCOC)c2c1CC(C)(C)CC2=O | -0.0334
75 | CC(C)OC[C@H]1CCC[C@]12CN(S(=O)(=O)c1cccs1)CCO2 | -8.77
76 | CC(C)C(C(=O)N1CCC(N(C)c2cccnn2)CC1)n1cncn1 (stereo not given) | -12.6
77 | CNC(=O)C(C)(C)CNC(=O)Nc1cc(C)ccn1 | -7.88
78 | Cc1ccc(OCCN2CCC(c3nc(C)n4c(C)csc34)CC2)cc1 | 3.59
79 | Cn1ncc2c(N3CC(N4CCCCC4)C3)nc(C3CCCC3)nc21 | -4.55
80 | Cc1cn2c(=O)c(-c3ccnc(N(C)C4CCCCC4)n3)cnc2s1 | -3.7
